Test results published in patent US20170319611A1, “METHODS AND COMPOSITIONS COMPRISING AKT INHIBITORS AND/OR PHOSPHOLIPASE D INHIBITORS” (Vanderbilt University, priority 2012, published 2017).

What was measured:
[1] = system: LC3 and p62; assay: Autophagy marker immunoblot (LC3-II, p62), U87MG cells; type: cell-based, human; details: for LC3-II levels relative to vehicle control: serum-free DMEM, 10 nM bafilomycin A1, 10 μM EVJ, 5 μM JWJ or 10 μM MK2206 for 6 h; for accumulation of LC3-II in the presence of bafilomycin A1: 10 nM bafilomycin A1 30 min, then inhibitor 6 h
Description: Lysates were prepared by incubating cell pellets in lysis buffer (see immunoprecipitation procedure) for 30 minutes at 4° C. Protein concentrations were measuring using the Bio-Rad protein assay reagent. The antibodies used in the various studies as described herein, along with their vendors and catalog numbers are provided in Table 3.
In addition to apoptosis, cells undergo another type of programmed cell death requiring autophagy (Tsujimoto and Shimizu, (2005) Cell Death Differ. 12 Suppl 2, 1528-1534), a process known to be stimulated by nutrient or growth factor deprivation (Kroemer, G. et al., (2010) Mol. Cell 40, 280-293). Autophagy is a multistep process involving formation of double-membrane autophagosomes that engulf cytosolic components and deliver cargo to lysosomes for digestion and nutrient recycling (Ravikumar, B. et al., (2009) J. Cell Sci. 122, 1707-1711). In order to determine if autophagy was perturbed following PLD or Akt inhibitor (MK2206) (Hirai, H. et al., (2010) Mol. Cancer Ther. 9, 1956-1967) treatment, the expression levels of the well-characterized autophagy makers microtubule-associated protein 1A/1B-light chain 3 (LC3) and p62 were measured. Autophagasome number is frequently assessed by measuring conversion of cytosolic LC3-I to a membrane-associated, lipidated LC3-II which is readily measureable as a faster migrating species of LC3 during SDS-PAGE (Kabeya, Y. et al., (2000) EMBO J. 19, 5720-5728). The other marker, p62, is an LC3 and ubiquitin-binding protein, involved in the regulation of protein aggregates and is degraded by autophagy (Komatsu, M. et al., (2005) J. Cell Biol. 169, 425-434). Induction of autophagy and successful degradation of autophagosomes would thus be accompanied by a decrease in p62 levels. […] Fold change in immunoreactivity relative to vehicle control. ANOVA with Dunnett's post-hoc test was used to compare inhibitor treatment to vehicle control (**p<0.01).
To conclusively determine that flux, rather than autophagosome initiation, is regulated by PLC, LC3-II conversion in the presence of the lysosomal proton pump inhibitor bafilomycin A1, which prevents autophagosome fusion to lysosomes and inhibits degradation of autophagosomes, was measured. Thus, bafilomycin A1 is commonly used to discriminate the effects of a compound on autophagy initiation versus flux by assessing LC3-II levels in the presence of a test compound after clamping degradation of autophagosomes (Yamamoto, A. et al., (1998) Cell Struct. Funct. 23, 33-42).

[2] = system: PLD; assay: Endogenous PLD activity assay (PtdBuOH) in U87MG cells; type: cell-based, human
Description: Data is presented as the ratio of the predominant phosphatidylbutanol peaks to the internal standard. To generate concentration response curves, U87MG cells were serum starved for approximately 24 hours. Cells were treated with the indicated concentration of PLD inhibitor for 15 minutes prior to addition of n-butanol containing media and phospolipid extraction.
Cells were pretreated with inhibitors 30 min prior to measurement of PLD activity. Data is presented as the percent activity remaining after PLD inhibitor treatment relative to control.

[3] = system: myrAktl; assay: Akt phosphorylation immunoblot, myrAktl U87MG cells; type: cell-based, human; details: overnight, serum-free DMEM; 10 μM EVJ or 5 μM JWJ
Description: To confirm the observed effects on autophagy and cell death following PLD inhibition in glioma cells was due to the regulation of Akt by PLD2, a stable U87MG cell line was developed to expresses a constitutively active form of Akt under the transcriptional control of the tetracycline repressor protein (Yao, F. et al., (1998) Hum. Gene Ther. 9, 1939-1950). This Akt construct contains the myristoylation sequence from Src kinase (Kohn, A. D. et al., (1996) J. Biol. Chem. 271, 31372-31378) and is constitutively membrane associated and active. Without wishing to be bound by a particular theory, if PtdOH serves to enhance membrane docking of Akt then PLD inhibition should not decrease phosphorylation of myristoylated Akt (myrAkt) since this construct bypasses lipid recruitment signals for membrane association. […] Tetracycline inducible myrAktl-expressing U87MG cells, or parental cells, were seeded into media containing 0.1 ug/ml tetracycline and protein expression induced for approximately 24 hours. […] Cells were seeded and treated as in figure A and immunoblotted for phosphorylated and total AMPK. AMPK activation was quantitated by densitometric quantification of the phospho-AMPK band over the total AMPK band. Fold changes were calculated by normalizing the DMSO condition to 1 for each cell line. […] Referring to FIG. 23B, parental or myrAktl U87MG cells were treated with the indicated inhibitors as in 23A overnight before blotting for phosphorylated and total Akt.

[4] = biological target: T1, PLD2-Akt interaction (Homo sapiens, UniProt P31749); assay: In vitro protein-protein interaction assay, purified PLD2 and Akt; type: binding; details: purified proteins, 10 μM inhibitor in reaction mixture
T1 construct: 6xHis (N); made in house; host or cells: Sf21 insect cells (baculovirus)
T1 sequence (P31749 whole entry): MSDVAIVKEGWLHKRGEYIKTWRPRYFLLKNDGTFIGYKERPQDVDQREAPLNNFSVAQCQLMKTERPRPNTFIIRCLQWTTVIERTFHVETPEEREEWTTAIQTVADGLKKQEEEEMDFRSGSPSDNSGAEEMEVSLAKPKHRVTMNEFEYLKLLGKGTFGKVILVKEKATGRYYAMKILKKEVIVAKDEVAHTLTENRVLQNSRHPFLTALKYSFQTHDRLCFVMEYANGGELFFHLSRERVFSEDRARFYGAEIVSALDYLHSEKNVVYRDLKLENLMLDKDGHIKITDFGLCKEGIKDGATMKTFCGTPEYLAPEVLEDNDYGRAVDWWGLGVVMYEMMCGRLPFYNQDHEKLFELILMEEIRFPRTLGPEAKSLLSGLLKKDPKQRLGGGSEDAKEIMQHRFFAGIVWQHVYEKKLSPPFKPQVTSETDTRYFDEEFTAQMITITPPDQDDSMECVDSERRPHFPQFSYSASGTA
Description: 25 nM PLD2-PtS or PtS tag were incubated with 50 nM 6×His-Aktl for 2 h in 50 mM Tris pH 8.0, 0.01% Nonidet P-40, 150 mM NaCl, 0.5 mM EDTA, and 50 mg/mL avidin. Where indicated, 10 μM inhibitor was included in the reaction mixture. PtS-tagged proteins were captured by incubation with strep-tactin resin for 2 h.
Although proteins may co-IP from cell lysate, determining whether proteins form a direct interaction requires binding experiments with purified proteins. As described herein, recombinant Akt and PLD2 was then expressed and purified from Sf21 insect cells (FIG. 8C). […] Numbers indicate molecular weights in kilodaltons. […] Since PLD2 and Akt appear to interact directly, the PLD inhibitors were evaluated to determine whether they disrupted the protein-protein interaction as a potential mechanism by which PLD2 regulates activation of Akt in cells. As described herein, purified PLD2 and Akt were incubated in the presence of EVJ, JWJ, or the allosteric pan-Akt inhibitor, MK2206 (Hirai, H. et al., (2010) Mol. Cancer Ther. 9, 1956-1967) and proteins captured using affinity resin. […] Referring to FIG. 9B, the same procedure was used as in 9A, except 10 μM EVJ, JWJ, or Akt inhibitor MK2206 was included in the reaction mixture.

[5] = system: AMPK; assay: AMPK activation immunoblot, U87MG cells; type: cell-based, human; details: 24 hours, 10 mM EVJ or 5 mM JWJ
Description: Another well-known regulator of autophagy is the adenosine monophosphate-activated protein kinase (AMPK). Changes in intracellular energy balance or metabolic stress are known to activate AMPK (Hardie, D. G. (2007) Nat. Rev. Mol. Cell Bio. 8, 774-785). AMPK serves as a metabolic checkpoint, acting to restore ATP levels through regulation of metabolic enzymes and inhibition of pro-growth anabolic pathways (Hardie, D. G. (2007) Nat. Rev. Mol. Cell Bio. 8, 774-785). […] U87MG cells were treated for 24 hours with […] before lysis and immunoblotting. AMPK activation was measured by assessing phosphorylation at threonine 172 and also by measuring activation of acetyl coenzyme A carboxylase (ACC) at serine 79.
Another AMPK substrate and component of the autophagasome initiation complex is Unc-51-like kinase 1 (ULK1). Several studies (Egan, D. F. et al., (2011) Science 331, 456-461; Kim, J. et al., (2011) Nature Cell Bio. 13, 132-141) have recently identified multiple AMPK sites on ULK1 that function to enhance initiation of autophagy. […] To determine whether the induction of autophagy through AMPK activation requires Akt, Aktl was silenced and then evaluated for effects of PLD inhibition on AMPK and ULK1 phosphorylation. Aktl was chosen to silence since Aktl phosphorylation was decreased following PLD inhibition in U87MG cells. […] U87MG cells were transfected with Aktl siRNA for 72 hours prior to cell lysis. Cells were treated with […] JWJ 24 hours prior to cell lysis.

Row | SMILES | LC3-II levels relative to vehicle control [1] | phosphorylated Akt in myrAktl U87MG cells [3] | PLD2-Akt interaction [4] | accumulation of LC3-II in the presence of bafilomycin A1 [1] | also measured
1 | CO/C1=C\C(C)=C\[C@@H](C)[C@@H](O)[C@@H](C)C/C(C)=C/C=C/[C@H](OC)[C@@H]([C@@H](C)[C@@H](O)[C@H](C)[C@@]2(O)C[C@@H](O)[C@H](C)[C@@H](C(C)C)O2)OC1=O [Bafilomycin A1] | increased LC3-II levels relative to vehicle control | – | – | – | –
2 | C[C@@H](CN1CCC(n2c(=O)[nH]c3cc(Cl)ccc32)CC1)NC(=O)c1ccc2ccccc2c1 [VU0155069, reference compound] | – | – | – | – | PtdBuOH production ([2]; U87MG glioblastoma cells, FIG. 28B): blocks PtdBuOH production
3 | CCC(=O)N1CCN(c2ccc(-n3c(=O)ccc4cnc5ccc(-c6cnc7ccccc7c6)cc5c43)cc2C(F)(F)F)CC1 [Torinl, reference compound] | – | decreased phosphorylation of myrAktl | – | – | –
4 | C[C@@H](CN1CCC(n2c(=O)[nH]c3cc(Br)ccc32)CC1)NC(=O)[C@@H]1C[C@@H]1c1ccccc1 [No. 2, (1R,2S)—N-((S)-1-(4-(5-bromo-2-oxo-2,3-dihydro-1H-benzo[d]imidazol-1-yl)piperidin-1-yl)propan-2-yl)-2-phenylcyclopropane carboxamide] | – | failed to reduce levels of phosphorylated Akt | detected even in the presence of PLD inhibitors | no additional accumulation of LC3-II | IC50 ([2]; U87MG cells, serum withdrawn 24 h, inhibitor pretreatment 30 min, read-out: IC50, attenuation of PLD activity following serum-withdrawal): ~0.5 µM; AMPK activation (phosphorylation of threonine 172) [5]: observed to increase; phosphorylation of acetyl-coA carboxylase (serine 79) [5]: increased phosphorylation of acetyl-coA carboxylase
5 | NC1(c2ccc(-c3nc4ccn5c(=O)[nH]nc5c4cc3-c3ccccc3)cc2)CCC1 [MK2206] | increased LC3-II levels relative to vehicle control | – | disrupted the PLD2-Akt interaction | no additional accumulation of LC3-II | –
